Data from ChEMBL document CHEMBL5360592, “Ursane-Type Triterpenes with a Phenylpropanoid Unit from Camellia ptilosperma and Evaluation of Their Cytotoxic Activities” (J Nat Prod, 2023).

Experiments:
Format in all cases: functional, cell-based
[1] = Cytotoxicity against mouse LL2 cells assessed as inhibition of cell growth incubated for 24 hrs by MTT assay; settings: Lewis lung carcinoma
NCI-H460 = test: Cytotoxicity against human NCI-H460 cells assessed as inhibition of cell growth incubated for 24 hrs by MTT assay; settings: NCI-H460, 24 h
MDA-MB-231 = test: Cytotoxicity against human MDA-MB-231 cells assessed as inhibition of cell growth incubated for 24 hrs by MTT assay; settings: MDA-MB-231, 24 h
HeLa = test: Cytotoxicity against human HeLa cells assessed as inhibition of cell growth incubated for 24 hrs by MTT assay
HT-29 = test: Cytotoxicity against human HT-29 cells assessed as inhibition of cell growth incubated for 24 hrs by MTT assay; settings: HT-29, 24 h
CT26 = test: Cytotoxicity against mouse CT26 cells assessed as inhibition of cell growth incubated for 24 hrs by MTT assay; settings: CT26, 24 h
HCT-116 = test: Cytotoxicity against human HCT-116 cells assessed as inhibition of cell growth incubated for 24 hrs by MTT assay; settings: HCT-116, 24 h
[2] = Cytotoxicity against mouse Hepa1-6 cells assessed as inhibition of cell growth incubated for 24 hrs by MTT assay; settings: Hepa1-6, 24 h
A549 = test: Cytotoxicity against human A549 cells assessed as inhibition of cell growth incubated for 24 hrs by MTT assay; settings: A549, 24 h

Row | Compound | IC50 [1] | IC50 (NCI-H460) | IC50 (MDA-MB-231) | IC50 (HeLa) | IC50 (HT-29) | IC50 (CT26) | IC50 (HCT-116) | IC50 [2] | IC50 (A549)
1 | COC(=O)[C@]1(C)[C@@H]2CC[C@]3(C)[C@H]([C@@H]4O[C@H](CO)[C@@H](c5ccc(O)c(OC)c5)OC4=C4[C@@H]5[C@@H](C)[C@H](C)CC[C@]5(C)CC[C@]43C)[C@@]2(C)CC[C@@H]1O | > 10 µM | > 10 µM | > 10 µM | > 10 µM | > 10 µM | 8.2 µM | > 10 µM | > 10 µM | > 10 µM
2 | COC(=O)[C@@]1(C)[C@@H]2CC[C@]3(C)[C@H]([C@@H]4O[C@H](c5ccc(O)c(OC)c5)[C@@H](C)OC4=C4[C@@H]5[C@@H](C)[C@H](C)CC[C@]5(C)CC[C@]43C)[C@@]2(C)CC[C@@H]1O | > 10 µM | > 10 µM | 4.9 µM | > 10 µM | > 10 µM | 9.1 µM | 8.2 µM | > 10 µM | > 10 µM
3 | COC(=O)[C@@]1(C)[C@@H]2CC[C@]3(C)[C@H]([C@@H]4O[C@@H](c5ccc(O)c(OC)c5)[C@@H](C)OC4=C4[C@@H]5[C@@H](C)[C@H](C)CC[C@]5(C)CC[C@]43C)[C@@]2(C)CC[C@@H]1O | > 10 µM | > 10 µM | > 10 µM | 8.1 µM | 8.5 µM | > 10 µM | > 10 µM | 4.1 µM | > 10 µM
4 | COC(=O)[C@@]1(C)[C@@H]2CC[C@]3(C)[C@H]([C@@H]4O[C@H](C)[C@@H](c5ccc(O)c(OC)c5)OC4=C4[C@@H]5[C@@H](C)[C@H](C)CC[C@]5(C)CC[C@]43C)[C@@]2(C)CC[C@@H]1O | > 10 µM | > 10 µM | 9.3 µM | > 10 µM | > 10 µM | > 10 µM | 7.5 µM | > 10 µM | > 10 µM
5 | COc1cc([C@H]2OC3=C4[C@@H]5[C@@H](C)[C@H](C)CC[C@]5(C)CC[C@@]4(C)[C@]4(C)CC[C@H]5C(C)(C)[C@@H](O)CC[C@]5(C)[C@H]4[C@@H]3O[C@@H]2CO)ccc1O | > 10 µM | > 10 µM | 2.7 µM | 0.7 µM | 5.1 µM | > 10 µM | 1.4 µM | 2.7 µM | > 10 µM
6 | COc1cc([C@H]2O[C@@H]3C(=C4[C@@H]5[C@@H](C)[C@H](C)CC[C@]5(C)CC[C@@]4(C)[C@]4(C)CC[C@H]5C(C)(C)[C@@H](O)CC[C@]5(C)[C@@H]34)O[C@@H]2CO)ccc1O | > 10 µM | > 10 µM | 2.2 µM | 5.2 µM | 6.8 µM | 7.5 µM | 5.7 µM | 4.7 µM | > 10 µM
